From patent publication US20170065561A1, “METHODS OF CANCER THERAPY” (CAMBRIDGE ENTERPRISE LIMITED, priority 2014, published 2017)
Entries after “also recorded” stand apart in the source; their conditions may differ.

How the values were obtained:
[1] = system: plasma ceramide; assay: Main treatment experiments in GD mice: plasma ceramide; format: in vivo, mouse; conditions: GD mice receiving the high dose
Experimental: (§1) The inducible mouse model of type 1 Gaucher disease [Gba^tm1Karl/tm1KarlTg (Mx1-cre) 1Cgn/0 (MGI:3687965; MGI:2176073)[41]. The mating, induction with polyinosinic-polycytidylic (poly I:C) acid sodium salt solution and genotyping were conducted as previously described. Animals of genotype Gba^tm1Karl/tm1KarlTg (Mx1-cre) 1Cgn/0 are referred GD mice; induced mice with the Gba^tm1Karl/tm1Karl and Gba^tm1Karl/+ genotypes and background strain wild type animals served as age-matched controls. All mice here reported had been bred on a C57BL/6 and 129/sv background.
GENZ 112638 was introduced at a mean age of 1.5 months, with access to the diet and water ad libitum. […] The health of the animals was checked daily; body weights and food consumption were monitored at intervals of three days. The humane endpoints were approved and established: (i) reduction of 20% or more of the greatest recorded body weight or (ii) the development of adverse manifestations (e.g. development of frank tumours or cachexia).
(§2) Concentrations of β-D-glucosylceramide in plasma in the short-term tolerability study were conducted as previously published. β-D-glucosylceramide, β-D-glucosylsphingosine and ceramide concentrations in tissues and plasma samples of the principal intervention and delayed-treatment experiments were quantified as previously reported.

[2] = mouse, in vivo, 300 mg/kg
Excerpt: (§3) GENZ 112638 was introduced at a mean age of 1.5 months, with access to the diet and water ad libitum. All experimental animals were housed in individually ventilated cages in groups of up to three mice within the same environmental conditions. The health of the animals was checked daily; body weights and food consumption were monitored at intervals of three days. The humane endpoints were approved and established: (i) reduction of 20% or more of the greatest recorded body weight or (ii) the development of adverse manifestations (e.g. development of frank tumours or cachexia).

[3] = system: AKT protein kinase-mammalian target of rapamycin signaling; conditions: polycystic kidney disease; cited from earlier work
[4] = system: plasma IgG; assay: Total IgG plasma concentrations (ELISA); format: in vivo, mouse; conditions: treated GD mice
Excerpt: Total IgG ELISA kit (Affimetrix) was used to determine plasma IgG concentrations in selected groups of animals.

[5] = system: glycosidases and other enzymes involved in sphingolipid metabolism; conditions: in vitro; cited from earlier work
[6] = system: intracellular ceramide; conditions: cited from earlier work
[7] = in vivo; cited from earlier work
[8] = target: T1, 1-O-acylceramide synthase (Homo sapiens, UniProt Q8NCC3); conditions: cited from earlier work
T1 sequence (Q8NCC3 34-412): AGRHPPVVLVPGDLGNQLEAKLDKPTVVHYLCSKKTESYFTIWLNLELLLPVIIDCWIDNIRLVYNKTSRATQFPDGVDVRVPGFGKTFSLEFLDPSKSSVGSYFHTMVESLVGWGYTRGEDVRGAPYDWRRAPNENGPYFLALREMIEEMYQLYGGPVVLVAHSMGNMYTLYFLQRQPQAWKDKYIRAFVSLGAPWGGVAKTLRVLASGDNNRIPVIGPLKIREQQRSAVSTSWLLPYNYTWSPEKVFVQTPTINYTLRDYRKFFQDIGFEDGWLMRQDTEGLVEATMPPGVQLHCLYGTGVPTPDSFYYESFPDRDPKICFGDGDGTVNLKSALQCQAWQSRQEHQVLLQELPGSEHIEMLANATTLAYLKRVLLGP

[9] = system: plasma glucosylsphingosine; assay: Delayed treatment experiments: plasma glucosylsphingosine; format: in vivo, mouse; conditions: delayed treatment: mean age 7.3 months, 300 mg/kg daily for 5.4 months
Experimental: (§4) To investigate the potential effects of delayed treatment, eight Gaucher mice were exposed to Genz-112638 after 6 months of age. The animals received the drug for 6 months at a dose 300 mg/kg daily and were killed at 12 months of age (FIG. 1). A group of eight matched Gaucher disease control mice were given the base standard diet; these animals were monitored and otherwise treated identically with those animals with delayed exposure to the study drug.
as §2

[10] = system: plasma glucosylceramide (GL-1); assay: Short-term dose-range experiment in GD mice: plasma glucosylceramide; format: in vivo, mouse; conditions: 6 week-old GD mice, 150 mg/kg and 300 mg/kg orally for two weeks
Experimental: as §1
The drug GENZ 112638 (Genzyme) was formulated in a standard rodent food (TestDiet) at 0.075% and 0.15% w/w. A group of six GD mice received 150 mg/kg daily, a second group of six GD mice received the drug at 300 mg/kg daily, and eight age-sex matched GD animals were given a base diet (TestDiet). The animals received the drug for 14 days and were then killed for analysis of tissue lipids.
as §2

[11] = system: plasma β-D-glucosylsphingosine; assay: Main treatment experiments in GD mice: plasma glucosylsphingosine; format: in vivo, mouse; conditions: for plasma glucosylsphingosine: GD mice with intermittent treatment; for reduction of plasma glucosylsphingosine: 300 mg/kg/day
Experimental: as §1, §3, §2

[12] = system: plasma glucosylceramide; assay: Delayed treatment experiments: plasma glucosylceramide; format: in vivo, mouse; conditions: delayed treatment: mean age 7.3 months, 300 mg/kg daily for 5.4 months
Experimental: as §4, §2

[13] = system: plasma β-D-glucosylceramide; assay: Main treatment experiments in GD mice: plasma glucosylceramide; format: in vivo, mouse
Experimental: as §1, §3, §2

[14] = system: GD mice; assay: Delayed treatment experiments: M protein species (electrophoresis and immunofixation); format: in vivo, mouse; conditions: delayed treatment: 300 mg/Kg daily months 7-12, age group 12-18 months
Experimental: as §4
(§5) Plasma/serum protein electrophoresis was carried out in agarose gels using a semiautomatic system (Hydrasys, Sebia) using 10 μL samples of neat serum or plasma. Immunofixation using polyclonal anti-sera raised against murine heavy and light immunoglobulin chains was conducted with diluted serum samples as previously reported.

[15] = system: GD mice; assay: Main treatment experiments: histology and immunohistochemistry of tissues; conditions: for plasma-cell (CD138+) infiltration in the red pulp of the spleen: treated versus age-matched untreated GD mice
Experimental: A total of 22 induced Gaucher disease mice received GENZ 112638 at 300 mg/kg daily: four mice received the treatment over 3 months, four mice received the drug for 6 months, six mice received the diet for 7-9 months. […] A group of 8 mice received the drug for 10 months and were killed at 14 months of age. To serve as a control group, 45 age- and sex-matched induced Gaucher mice were given a standard diet.
Visceral organs (spleen, liver, lungs and kidneys) as well as long bones, lymph nodes, and, where relevant, tumours, were collected by dissection and either frozen or fixed in 4% w/v paraformaldehyde or 10% buffered formalin and processed in paraffin-embedded blocks for further analysis. Sample of long bones were fixed in 4% w/v paraformaldehyde and decalcified in EDTA for two weeks. Spleen and liver weights were recorded fresh at post mortem. Samples of venous blood were collected from the tail vein at 3 monthly intervals during the experimental protocol. Complete blood counts (CBC) were determined using an automated haematology analyser (SYSMEX XT 2000i). EDTA plasma or serum samples collected at post mortem were stored at −80° C. until thawed for analysis.
Paraffin-embedded sections of 3.5 μm were stained routinely with haematoxylin and eosin. Immunohistochemical staining was carried out using rat anti-mouse CD45R/B220 (R&D systems), anti-mouse CD3 (Abcam), CD138 (BD, Pharmingen), rat anti-mouse Mac-3 M3/84 clone (BD, Pharmingen) and rabbit anti-mouse Ki-67 (Abcam) primary antibodies. Staining was realized by the avidin-biotin peroxidase technique (Vectastatin ABC elite kit), and developed using diaminobenzidine with cresyl violet or haematoxylin counterstaining.
Lymphoproliferation in serial sections of spleen, liver, lungs and kidneys was estimated by a scoring system modified as described by Elmore [42]. Sections were reviewed blindly for lymphoma and lymphoproliferative reactions by a board-certified veterinary pathologist.

[16] = system: (GBA^D409/null) knock-in model of Gaucher disease; conditions: 75 or 150 mg/kg daily orally for 10 weeks, cited from earlier work
[17] = target: T2, UDP-glucosylceramide synthase (Homo sapiens, UniProt Q16739); conditions: read-out: IC50 (potency, UDP-glucosylceramide synthase); cited from earlier work
T2 sequence (Q16739 1-394): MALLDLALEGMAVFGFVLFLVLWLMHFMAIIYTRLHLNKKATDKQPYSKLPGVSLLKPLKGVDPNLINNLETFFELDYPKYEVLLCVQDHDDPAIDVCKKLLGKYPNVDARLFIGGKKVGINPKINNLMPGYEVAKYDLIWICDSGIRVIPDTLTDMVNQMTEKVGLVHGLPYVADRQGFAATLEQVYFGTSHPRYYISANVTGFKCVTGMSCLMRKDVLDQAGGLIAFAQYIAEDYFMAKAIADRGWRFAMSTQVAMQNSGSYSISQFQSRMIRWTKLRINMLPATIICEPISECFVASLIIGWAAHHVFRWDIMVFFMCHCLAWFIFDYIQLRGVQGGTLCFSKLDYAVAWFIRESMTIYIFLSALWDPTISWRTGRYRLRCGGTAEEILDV

[18] = system: individuals with non-neuronopathic Gaucher disease; conditions: Phase III, over two years, oral; cited from earlier work
[19] = system: Gaucher mice; assay: Main treatment experiments: plasma/serum protein electrophoresis and immunofixation (monoclonal immunoglobulin species); format: in vivo, mouse; conditions: for detectable monoclonal paraprotein species: GD mice, early administration from six weeks of age; for M-protein (number of mice): 300 mg/Kg daily months 1.5-12
Experimental: as §5
(§6) The non-parametric Mann-Whitney test was used for between-groups comparisons. The Fisher's exact test was used for comparison of the occurrence of lymphoma or plasma paraprotein in treated and untreated groups. Statistical analyses were conducted using GraphPad Prism v5.0 software.

[20] = system: GD mice; assay: Delayed treatment experiments: lymphoid hyperplasia and lymphoma (histology); format: in vivo, mouse; conditions: delayed treatment: 300 mg/Kg daily, mean age 7.3 months, 5.4 months, total 9 mice
Experimental: as §4

[21] = system: Gaucher mice; assay: Main treatment experiments: lymphoma incidence in Gaucher mice; format: in vivo, mouse
Experimental: as §6

[22] = system: type 1 (non-neuronopathic) Gaucher disease; conditions: type 1 Gaucher disease; cited from earlier work
[23] = age group 0-6 months, total 4 mice
[24] = age group 7-12 months, total 10 mice
[25] = age group 13-18 months, total 8 mice

Molecule: bis{N-[(1R,2R)-2-(2,3-dihydro-1,4-benzodioxin-6-yl)-2-hydroxy-1-(pyrrolidin-1-ylmethyl)ethyl]octanamide} (2R,3R)-2,3-dihydroxybutanedioate [eliglustat tartrate]
- mean plasma ceramide concentrations [1]: slightly increased
- animals withdrawn early from the study as a result of weight loss [2]: Two
- AKT protein kinase-mTOR signaling and cell-cycle control [3]: repress
- total plasma immunoglobulin G concentrations [4]: decreased significantly
- inhibitory properties towards glycosidases and other enzymes involved in sphingolipid metabolism [5]: minimal inhibitory properties
- intracellular ceramide levels [6]: does not inhibit 1-O-acylceramide synthase or increase intracellular ceramide levels
- safety and tolerability [7]: safe and tolerable
- inhibition of 1-O-acylceramide synthase [8]: does not inhibit 1-O-acylceramide synthase
- plasma concentration of glucosylsphingosine [9]: decreased
- plasma glucosylceramide (GL-1) concentration [10]: decrease the concentration of glucosylceramide
- plasma glucosylceramide (GL-1) concentration ([10]; listed as GENZ 112638): dose-dependent decrease
- plasma glucosylsphingosine ([11]; listed as GENZ 112638): raised above the reference range
- plasma glucosylsphingosine ([11]; listed as Genz-112638): not significantly different
- plasma β-D-glucosylsphingosine concentration ([11]; GD mice, 300 mg/kg daily, early continuous treatment, listed as GENZ 112638, 300 mg/kg): decreased; also recorded: notable decrease
- reduction of plasma glucosylsphingosine ([11]; GD mice, after 6 months of treatment, p<0.01): ~5 fold
- reduction of plasma glucosylsphingosine ([11]; GD mice, after 9 months of treatment, p<0.05): ~2 fold
- plasma concentration of glucosylceramide [12]: decreased
- glucosylceramide concentration in plasma ([13]; GD mice with intermittent treatment for 10 months, listed as GENZ 112638): raised above the reference range
- glucosylceramide concentration in plasma ([13]; GD mice with intermittent treatment for 10 months, listed as Genz-112638): increased plasma concentration
- plasma β-D-glucosylceramide concentration ([13]; GD mice, 300 mg/kg daily, early continuous treatment): decreased
- glucosylceramide concentration in plasma ([13]; GD mice, after 10 months treatment, p<0.01): reduced
- glucosylceramide/ceramide ratio ([13]; treated GD animals compared with untreated): markedly diminished
- M protein (number of mice with monoclonal paraprotein or oligoclonal immunoglobulin secretion) [14]: 5
- M protein (number of mice with monoclonal paraprotein or oligoclonal immunoglobulin secretion) ([14]; listed as GENZ 112638): five
- Ki-67 staining (proliferation marker), spleen ([15]; GD mice treated for 10 months, listed as Genz-112638): less evident; also recorded: decreased population of lymphoid cells
- lipid-engorged macrophages in tissue sections ([15]; GD mice, liver and spleen): fewer lipid-engorged macrophages
- pathological macrophages staining for the Mac 3 antigen ([15]; tissues of GD mice, listed as GENZ 112638): markedly decreased or absent; also recorded: prevented the florid appearance of pathological macrophages
- cellularity of the spleens ([15]; treated Gaucher mice): slight decrease
- plasma-cell (CD138+) infiltration in the red pulp of the spleen ([15]; listed as GENZ 112638): less evident
- plasma-cell (CD138+) infiltration in the red pulp of the spleen ([15]; listed as Genz-112638): decreased number of CD138^+ lymphocytes
- inflammatory changes in the liver, lungs and kidneys ([15]; treated versus untreated GD mice): reduced or absent
- splenic architecture (H&E; B220/CD3 staining) ([15]; treated versus untreated GD mice, listed as GENZ 112638): preservation of the splenic architecture
- splenic architecture (H&E; B220/CD3 staining) ([15]; treated versus untreated GD mice, listed as Genz-112638): preserved white pulp architecture
- spleen and liver weights ([15]; treated versus untreated Gaucher mice): did not differ
- glucosylceramide in tissues ([16]; 10 week-old and 7 month-old mice): dose-dependent reduction
- infiltration of abnormal macrophages in tissues [16]: decreased infiltration
- IC50 [17]: 24 nM
- key clinical manifestations of the disease [18]: clearly improved
- detectable monoclonal paraprotein species ([19]; listed as GENZ 112638): suppressed the appearance
- detectable monoclonal paraprotein species ([19]; listed as Genz-112638): none and prevents development of monoclonal paraproteins
- M-protein (number of mice) [19, 23]: 0
- M-protein (number of mice) [19, 24]: 0
- M-protein (number of mice) [19, 25]: 0
- M-protein (number of mice) ([19]; all age groups, total 22 mice): 0
- Lymphoid hyperplasia (number of mice) [20]: 4
- Lymphoma/myeloma (number of mice) [20]: 1
- Lymphoid hyperplasia (number of mice) ([20]; listed as GENZ 112638): five
- Lymphoma/myeloma (number of mice) ([20]; listed as GENZ 112638): one and did not completely prevent
- occurrence of B cell lymphoma, myeloma or other tumours ([21]; 22 Gaucher mice exposed for 2-10 months, 300 mg/kg, early administration, listed as GENZ 112638, 300 mg/kg): No B cell lymphomas or other tumours were found; also recorded: completely prevented
- Lymphoma (number of mice) [21, 23]: 0
- Lymphoma (number of mice) [21, 24]: 0
- Lymphoma (number of mice) [21, 25]: 0
- Lymphoma (number of mice) ([21]; all age groups, total 22 mice): 0

Molecule: CCCCN1C[C@H](O)[C@@H](O)[C@H](O)[C@H]1CO [N-butyldeoxynojirimycin]
- therapeutic action in clinical studies [22]: small therapeutic action
